The source of these data is US20190008160A1, “BACILLUS THURINGIENSIS SUBSP. KURSTAKI AND BACILLUS THURINGIENSIS SUBSP. AIZAWAI COMBINATION FORMULATIONS” (Valent BioSciences Corporation, priority 2015, published 2019).

Structures are written as SMILES.

The test system of test [1] is diamondback moth (Plutella xylostella) and cabbage cluster caterpillar (Crocidolomia pavonana) known to be resistant to chlorantraniliprole. Nature of the test: Example 5 cabbage plot study, yield under chlorantraniliprole-resistant pest infestation. The format is in vivo, Plutella xylostella; Crocidolomia pavonana (on cabbage). The conditions noted are these: rate 30.9 g/ha; cabbage plots. As for the experimental part: (§1) A study was conducted to determine the effect that a synergistic weight ratio of Bacillus thuringiensis subsp. kurstaki and Bacillus thuringiensis subsp. aizawai would have on insect species with known resistance to the commonly used insecticide, chlorantraniliprole. Prevathon™ (available from DuPont™) is a 5% suspension concentrate of chlorantraniliprole and was used as the source of chlorantraniliprole in the following two studies. Sympatico™ emulsifiable suspension concentrate (available from Valent BioSciences Corporation) was used as the source of Bacillus thuringiensis subsp. aizawai and Bacillus thuringiensis kurstaki. Sympatico™ contains about a 60:40 weight ratio of Bacillus thuringiensis subsp. kurstaki fermentation solids, spores and toxins to Bacillus thuringiensis subsp. aizawai fermentation solids, spores and toxins. The plots were planted with cabbage and naturally infested with populations of diamondback moth (Plutella xylostella) and cabbage cluster caterpillar (Crocidolomia pavonana) that were known to be resistant to chlorantraniliprole.

In test [2] the test system is insect species with known resistance to chlorantraniliprole. Put plainly: Example 6 plot study, yield with insect species resistant to chlorantraniliprole. The format is in vivo. As to conditions: rate 30.9 g a.i/ha. As for the experimental part: as §1
Another study was conducted to determine the effect that a synergistic weight ratio of Bacillus thuringiensis subsp. kurstaki and Bacillus thuringiensis subsp. aizawai would have on insect species with known resistance to the commonly used insecticide, chlorantraniliprole.

As for `CNC(=O)c1cc(Cl)cc(C)c1NC(=O)c1cc(Br)nn1-c1ncccc1Cl` [Chlorantraniliprole], the Yield in test [1] came out at 67.0 kg/plot; in test [2] it was 88.3 kg/plot.
